In patent US5654008A, “Preparation of biodegradable microparticles containing a biologically active agent” (Alkermes Controlled Therapeutics Inc. II, priority 1996, dated 1997):

**Q.** For `C#C[C@]1(O)CC[C@H]2[C@@H]3CCC4=CC(=O)CC[C@@H]4[C@H]3CC[C@@]21C` [NET, norethindrone], which “NET release rate, effect of quench volume” value (0.25 to 1.5 L quench liquid per gram, possible minimum at 1 L) is on record?
**A.** Its value is “varies slightly with a possible minimum”.

**Q.** And the “in vitro release, effect of ethyl acetate content of quench liquid” value (at extreme ethyl acetate contents)?
**A.** The value was “quicker release”.
